In test [1] the target is T1, 14-3-3-ζ (Homo sapiens, UniProt P63104).
T1 construct: His10 (cleaved yes); made in house
T1 sequence (P63104 1-245): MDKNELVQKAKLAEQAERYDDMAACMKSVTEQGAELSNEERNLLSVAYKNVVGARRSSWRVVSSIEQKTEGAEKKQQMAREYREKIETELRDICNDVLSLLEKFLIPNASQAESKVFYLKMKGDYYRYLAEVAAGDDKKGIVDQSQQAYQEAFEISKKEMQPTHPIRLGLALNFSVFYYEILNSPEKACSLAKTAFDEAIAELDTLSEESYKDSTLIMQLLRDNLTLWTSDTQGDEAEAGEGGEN
As to the kind of experiment: 15N-1H HSQC NMR titration of 15N-labeled integrin tails with unlabeled 14-3-3-ζ. The class given is binding. The note with it: 15N-labeled tail 0.1 mM, equimolar unlabeled 14-3-3-ζ; NMR buffer pH 6.5, 25 °C. The procedure: (§1) Samples were prepared in NMR buffer (pH 6.5) with 5% D2O, and experiments were performed at 25 °C. Titration experiments were collected on a 500-MHz spectrometer using a water flip-back-embedded gradient enhanced ^15N–^1H HSQC pulse sequence.[46] For the assignment of the α4 and β2 backbone resonances, ^15N–^13C integrin tails of 0.6 mM concentration were used to measure CBCA(CO)NH and CBCANH experiments on a Bruker 500-MHz instrument equipped with a cryogenic probe head. Data were processed using NMRPipe[47] and analyzed with the programs CARA/XEASY[48] or CCPN Analysis.[49]

Test [2] addresses T1, 14-3-3-ζ. The experiment in a line: Fluorescence polarization titration of fluorescein-labeled integrin tails with 14-3-3-ζ. The class given is binding. The note with it: 1 μM, ex 485 nm, em 520 nm; for binding to 14-3-3-ζ by fluorescence polarization, in words: fluorescein-labeled tail. As for the experimental part:
Fig. 6 Fluorescence polarization and ITC of interactions between integrin tails and 14-3-3-ζ. (a) Fluorescence polarization titrations of fluorescein-labeled β1A, β3 and α4 with 14-3-3-ζ. […] (b–d) ITC sensorgram of an in-cell 200 μM β1A, β2 (same as in Fig. 5a) or β3 samples injected with 2 mM 14-3-3-ζ.
For fluorescence polarization experiments, integrin tails were labeled with fluorescein-5-maleimide (Invitrogen) linked to an engineered C-terminal Cys residue. Measurements were performed using 96-well microplates (Corning) in a PHERAstar FS microplate reader (BMG Labtech). Fluorescein-labeled integrin tails at 1 μM concentration were excited at 485 nm, and polarization was recorded at 520 nm.

The test system of test [3] is paxillin (residues 1–323). As to the kind of experiment: ITC test of pairwise interaction with paxillin N-terminal region. Format: binding. As for the experimental part: (§2) The interactions of α4 and 14-3-3-ζ with paxillin were also investigated. The association of paxillin with α4 has been detected using pull-down experiments with glutathione S-transferase fusion proteins[22,32,33] and, very recently, by NMR in a study that also reports the solution structure of the α4 integrin tail.[34] […] The possibility that a paxillin/14-3-3-ζ association depends on phosphorylation was also assessed. The ELM (eukaryotic linear motif) server[35] indicated three putative 14-3-3 binding motifs in the paxillin N-terminus; of these, only one has been reported to be phosphorylated in vivo[36] (Supplementary Fig. 1a). […] The recent report of paxillin binding to α4 detected by NMR used shorter paxillin fragments than us, covering the LD2–LD4 region.[34] It is possible that, in the whole N-terminal paxillin, the α4 interaction sites are masked, which would explain the absence of an interaction in our studies.
Phosphorylated α4 synthetic peptides were purchased from GL Biochem Ltd. (Shanghai). All recombinant proteins and synthetic peptides were prepared in 20 mM sodium phosphate and 50 mM NaCl (pH 6.5), and concentrations were determined by UV absorbance at 280 nm. […] Raw data were processed and fitted with MicroCal Origin software using a one-site model where the error function is calculated as the sum of the squared deviations between the data and the model curve.

Test [4] has as its target T1, 14-3-3-ζ. The experiment in a line: ITC of integrin tail fragments with 14-3-3-ζ. Particulars: 298 K, pH 6.5, fragment in cell, 14-3-3-ζ in syringe. The class given is binding. The procedure:
Phosphorylated α4 synthetic peptides were purchased from GL Biochem Ltd. (Shanghai). All recombinant proteins and synthetic peptides were prepared in 20 mM sodium phosphate and 50 mM NaCl (pH 6.5), and concentrations were determined by UV absorbance at 280 nm. ITC experiments using a VP-ITC200 instrument (MicroCal) were performed at 298 K as follows: the cell (volume, ~ 200 μl) contained the different integrin tail fragments, and the syringe (volume, ~ 40 μl) contained 14-3-3-ζ. A first injection of 2 μl was followed by 15 injections of 2.5 μl, with a stirring speed of 1500 rpm and a delay between injections of 180 s. A blank titration was performed by injecting 14-3-3-ζ into buffer to take the heat of dilution into account. Experiments were repeated twice for each sample. Raw data were processed and fitted with MicroCal Origin software using a one-site model where the error function is calculated as the sum of the squared deviations between the data and the model curve.

Test [5] has as its system paxillin (residues 1–323). The experiment in a line: NMR test of α4 integrin tail interaction with paxillin N-terminal region. The class given is binding. Particulars: paxillin residues 1–323 with all LD motifs. As for the experimental part: as §2
Samples were prepared in NMR buffer (pH 6.5) with 5% D2O, and experiments were performed at 25 °C. Titration experiments were collected on a 500-MHz spectrometer using a water flip-back-embedded gradient enhanced ^15N–^1H HSQC pulse sequence.[46] […] Data were processed using NMRPipe[47] and analyzed with the programs CARA/XEASY[48] or CCPN Analysis.[49]

The test system of test [6] is 14-3-3-ζ S58A. The experiment in a line: NMR binding of 14-3-3-ζ variant S58A to labeled integrin tail. Particulars: labeled β1A.
Source text: (§3) To gain further insight into the β1A/14-3-3-ζ association, we investigated the effects of 14-3-3-ζ substitutions on binding to β1A integrin tail. It has been reported that the substitution S58A in 14-3-3-β abolishes the β1A interaction.[38] S58 regulates the dimeric state of 14-3-3,[39] but it is not involved directly in binding to phospho-peptides. The binding of 14-3-3-ζ variants S58A and S58E to labeled β1A was studied using NMR. […] A similar result was obtained with the β2 integrin tail (data not shown).
as §1

Test [7] deals with 14-3-3-ζ S58E. The experiment in a line: NMR binding of 14-3-3-ζ variant S58E to labeled integrin tail. Particulars: labeled β1A.
Source text: as §3, §1

“Also recorded” adds a separate entry of the source.

For “GPLGSKAGFFKRQYKSILQEENRRDSWSYINSKSNDD [α4 wt, recombinant α4 integrin cytoplasmic tail, residues 1001–1032]”, in test [1], the “change of integrin tail resonances on addition of 14-3-3-ζ, in words” value is “significant decrease in α4 amide resonance intensities”. Besides, the “binding to 14-3-3-ζ by fluorescence polarization, in words” value in test [2] is “No binding was detected”. The “interaction with paxillin by ITC, in words” value in test [3] is “no pairwise interaction was detected by ITC”. For the same substance, the “binding to 14-3-3-ζ by ITC, in words” value in test [4] is given as “a Kd could not be determined by ITC; also recorded: the interaction is weak, in the millimolar range”. Further, the “interaction with paxillin by NMR, in words” value in test [5] was “no specific interaction”.

On to “GS KLLMIIHDRREFAKFEKEKMNAKWDTGENPIYKSAVTTVVNPKYEGK (GSKLLMIIHDRREFAKFEKEKMNAKWDTGENPIYKSAVTTVVNPKYEGK; left off: His10, N-terminal, cleaved) [β1A wt, recombinant β1A integrin tail, residues 752–798]”, for which the “change of integrin tail resonances on addition of 14-3-3-ζ, in words” value in test [1] was “intensity reduction for several resonances”. Further, in test [2], the “binding to 14-3-3-ζ by fluorescence polarization, in words” value is on record as “clearly binds”. The Kd in test [2] (fluorescence polarization, tail labeled with fluorescein-5-maleimide at engineered C-terminal Cys, single-site model) amounted to 95 ± 16 µM. Besides, the “change of integrin tail resonance intensity with 14-3-3-ζ S58A compared to wt, in words” value in test [6] is given as “significant reduction in β1A resonance intensity change”. The “change of integrin tail resonance intensity with 14-3-3-ζ S58E, in words” value in test [7] is reported as “the intensities change even less”.

As a reminder, the Kd is the equilibrium constant for the complex coming apart.
